From patent US20090264415A2 (priority 2004, published 2009)
pIC50: −log10 of the molar value. Read-outs that look alike come from different tables or passages of the source.

Tested on: peripheral blood mononuclear cells (PBMC) stimulated with allogeneic PBMC or EBV-transformed human B cells (RPMI1788)
Assay: Mixed lymphocyte reaction (MLR) assay
Format: cell-based
Method in brief: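 Compounds, held as 10 mM DMSO stocks and diluted in culture medium, were added to PBMC stimulated by 30 Gy-irradiated allogeneic PBMC or RPMI1788 cells. Proliferation was read as [3H]-thymidine uptake (1 μCi, final 16 h) after 5 days at 37° C. Inhibition was derived from cpm.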

[1] = Homo sapiens, RPMI-1788, MLR assay of example 319, read-out: MLR IC50
[2] = Homo sapiens, RPMI-1788, 50% suppression of the MLR, [3H]-thymidine incorporation, read-out: MLR
[3] = 50% suppression of the MLR, [3H]-thymidine incorporation, read-out: MLR

Cc1cccc(NC(=O)N2CCN(c3nc(C)nc4ccc(-c5ccc(F)cc5)nc34)CC2)c1 [Example 531, 2-methyl-4-[N-(3-methylphenylcarbamoyl)piperazin-1-yl]-6-(4-fluorophenyl)-pyrido[3,2-d]pyrimidine]
pIC50 [1]: 7.08

COc1ccc(-c2ccc3nc(N)nc(N4CCN(C(=O)COc5ccc(Cl)cc5)CC4)c3n2)cc1 [Example 426, 2-amino-4-[4-(4-chlorophenoxyacetyl)piperazin-1-yl]-6-(4-methoxyphenyl)pyrido-[3,2-d]pyrimidine]
pIC50 [1]: 7.52

CS(=O)(=O)c1ccc(-c2ccc3nc(N)nc(N4CCN(C(=O)COc5ccc(Cl)cc5)CC4)c3n2)cc1 [Example 417, 2-amino-4-[4-(4-chlorophenoxyacetyl)piperazin-1-yl]-6-(4-(methanesulfonyl)-phenyl)pyrido-[3,2-d]pyrimidine]
pIC50 [1]: 7.55

CCOc1ccc(-c2ccc3nc(N)nc(N4CCN(C(=O)COc5ccc(Cl)cc5)CC4)c3n2)cc1Cl [Example 493, 2-amino-4-[N-(4-chlorophenoxyacetyl)-piperazin-1-yl]-6-(3-chloro-4-ethoxyphenyl)-pyrido(3,2-d)pyrimidine]
pIC50 [1]: 7.24

COc1ccc(-c2ccc3nc(N)nc(N)c3n2)cc1OC [Example 256, 2,4-diamino-6-(3,4-dimethoxyphenyl)-pyrido[3,2-d]pyrimidine]
pIC50 [2]: 6.22

Nc1nc(N2CCN(C(=O)COc3ccc(Cl)cc3)CC2)c2nc(-c3ccc(C(=O)O)s3)ccc2n1 [Example 413, 2-amino-4-[4-(4-chlorophenoxyacetyl)piperazin-1-yl]-6-(2-carboxythiophen-5-yl)pyrido-[3,2-d]pyrimidine]
pIC50 [1]: < 5.00

COCc1cccc(-c2ccc3nc(N)nc(N4CCN(C(=O)COc5ccc(Cl)cc5)CC4)c3n2)c1 [Example 500, 2-amino-4-[N-(4-chlorophenoxyacetyl)-piperazin-1-yl]-6-(3-methoxy-methylphenyl)-pyrido(3,2-d)pyrimidine]
pIC50 [1]: 7.51

Nc1nc(N2CCN(C(=O)C3CCc4ccccc4O3)CC2)c2nc(-c3ccc(F)cc3)ccc2n1 (stereo not shown) [Example 524, [4-(2-amino-6-(4-fluorophenyl)pyrido[3,2-d]pyrimidin-4-yl)piperazin-1-yl]chroman-2-ylmethanone]
pIC50 [1]: 6.65

Nc1nc(N2CCN(C(=O)NCc3ccc(Cl)cc3)CC2)c2nc(-c3ccc(F)cc3)ccc2n1 [Example 189, 2-amino-4-[(N-4-chloro-benzylcarbamoyl)-piperazin-1-yl]-6-(4-fluorophenyl)-pyrido[3,2-d]pyrimidine]
pIC50 [2]: 6.30

Cc1cccc(NC(=O)N[C@H]2CCN(c3nc(N)nc4ccc(-c5ccc(F)cc5)nc34)C2)c1 [Example 578]
pIC50 [1]: < 5.00

CCOc1ccc(-c2ccc3nc(N)nc(N4CCN(C(=O)COc5ccc(Cl)cc5)CC4)c3n2)cc1 [Example 494, 2-amino-4-[N-(4-chlorophenoxyacetyl)-piperazin-1-yl]-6-(4-ethoxyphenyl)-pyrido(3,2-d)pyrimidine]
pIC50 [1]: 7.48

CSc1ccc(-c2ccc3nc(N)nc(N4CCN(C(=O)COc5ccc(Cl)cc5)CC4)c3n2)cc1 [Example 495, 2-amino-4-[N-(4-chlorophenoxyacetyl)-piperazin-1-yl]-6-(4-methylthiophenyl)-pyrido(3,2-d)pyrimidine]
pIC50 [1]: 7.66

COc1ccc(-c2ccc3nc(N)nc(N4CCN(C(=O)COc5ccc(Cl)cc5)CC4)c3n2)c(OC)c1 [Example 505, 2-amino-4-[N-(4-chlorophenoxyacetyl)-piperazin-1-yl]-6-(2,4-dimethoxyphenyl)-pyrido(3,2-d)pyrimidine]
pIC50 [1]: 7.14

CC(=O)Nc1nc(-c2nc[nH]n2)c2nc(-c3ccc(Cl)c(Cl)c3)ccc2n1 [Example 145, 2-acetamido-4-(1,2,4-triazolyl)-6-(3,4-dichloro-phenyl)pyrido-[3,2-d]pyrimidine]
pIC50 [2]: 5.28

Cc1ccc(-c2ccc3nc(N)nc(N4CCN(C(=O)COc5ccc(Cl)cc5)CC4)c3n2)cc1 [Example 445, 2-amino-4-[4-(4-chlorophenoxyacetyl)piperazin-1-yl]-6-(4-methylphenyl)pyrido-[3,2-d]pyrimidine]
pIC50 [1]: 7.54

COc1ccc(-c2ccc3nc(N4CCOCC4)nc(N4CCN(C(=O)Nc5cccc(C)c5)CC4)c3n2)cc1OC [Example 88]
pIC50 [3]: 6.40

Nc1nc(N2CCN(C(=O)COc3ccc(Cl)cc3)CC2)c2nc(-c3ccc4[nH]ccc4c3)ccc2n1 [Example 412, 2-amino-4-[4-(4-chlorophenoxyacetyl)piperazin-1-yl]-6-(indol-5-yl)pyrido-[3,2-d]pyrimidine]
pIC50 [1]: 7.41

Nc1nc(N2CCN(C(=O)NC34CC5CC(CC(C5)C3)C4)CC2)c2nc(-c3ccc(F)cc3)ccc2n1 [Example 453, 2-amino-4-{4-[N-(1-adamantylcarbamoyl)]-piperazin-1-yl}-6-(4-fluorophenyl)-pyrido[3,2-d]pyrimidine]
pIC50 [1]: 5.40

N#Cc1ccccc1-c1ccc2nc(N)nc(N3CCN(C(=O)COc4ccc(Cl)cc4)CC3)c2n1 [Example 416, 2-amino-4-[4-(4-chlorophenoxyacetyl)piperazin-1-yl]-6-(2-cyanophenyl)pyrido-[3,2-d]pyrimidine]
pIC50 [1]: 7.92

Cc1cccc(NC(=O)N2CCN(c3ncnc4ccc(-c5cc(F)c(F)c(F)c5)nc34)CC2)c1 [Example 561, 4-[(3-methylphenylcarbamoyl)-piperazin-1-yl]-6-(3,4,5-trifluorophenyl)pyrido[3,2-d]pyrimidine]
pIC50 [1]: 6.38

C=CC(=O)N1CCN(c2nc(N)nc3ccc(-c4ccc(OC)c(OC)c4)nc23)CC1 [Example 393, 2-amino-4-[4-(2-propenoyl)piperazin-1-yl]-6-(3,4-dimethoxyphenyl)-pyrido[3,2-d]pyrimidine]
pIC50 [1]: 6.40

Cc1cccc(NC(=O)N2CCN(c3ncnc4ccc(-c5ccc(F)c(C)c5)nc34)CC2)c1 [Example 555, 4-[(3-methylphenylcarbamoyl)-piperazin-1-yl]-6-(3-methyl-4-fluoro-phenyl)pyrido[3,2-d]pyrimidine]
pIC50 [1]: 6.52

Nc1nc(N2CCOCC2)c2nc(Cl)ccc2n1 [Example 230, 2-amino-6-chloro-4-morpholino-pyrido[3,2-d]pyrimidine]
pIC50 [2]: < 5.00

CCOC(=O)c1ccc(-c2ccc3nc(N)nc(N4CCN(C(=O)COc5ccc(Cl)cc5)CC4)c3n2)cc1 [Example 510, 2-amino-4-[N-(4-chlorophenoxyacetyl)-piperazin-1-yl]-6-(4-ethoxycarbonylphenyl)-pyrido(3,2-d)pyrimidine]
pIC50 [1]: 7.49

COc1ccc(OC)c(-c2ccc3nc(N)nc(N4CCN(C(=O)COc5ccc(Cl)cc5)CC4)c3n2)c1 [Example 506, 2-amino-4-[N-(4-chlorophenoxyacetyl)-piperazin-1-yl]-6-(2,5-dimethoxyphenyl)-pyrido(3,2-d)pyrimidine]
pIC50 [1]: 6.16

Nc1nc(N2CCN(C(=O)COc3ccc(Cl)cc3)CC2)c2nc(-c3ccccc3F)ccc2n1 [Example 424, 2-amino-4-[4-(4-chlorophenoxyacetyl)piperazin-1-yl]-6-(2-fluorophenyl)pyrido-[3,2-d]pyrimidine]
pIC50 [1]: 6.96

Nc1nc(N2CCN(C(=O)COc3ccc(Cl)cc3)CC2)c2nc(-c3ccc(C(=O)NC4CC4)cc3)ccc2n1 [Example 448, 2-amino-4-[4-(4-chlorophenoxyacetyl)piperazin-1-yl]-6-[4-(cyclopropylaminocarbonyl)phenyl]-pyrido-[3,2-d]pyrimidine]
pIC50 [1]: 7.82

COc1ccc(-c2ccc3nc(Nc4ccc(C)cc4)nc(N4CCN(C(=O)Nc5cccc(C)c5)CC4)c3n2)cc1OC [Example 91, 2-(p-tolylamino)-4-[(N-3-methylphenylcarbamoyl)-piperazin-1-yl]-6-(3,4-dimethoxy-phenyl)-pyrido[3,2-d]pyrimidine]
pIC50 [3]: 6.10

CC(C)(C)OC(=O)N1CCC(Nc2nc(N)nc3ccc(-c4ccc(F)cc4)nc23)C1 [Example 577, 2-amino-4-[(S)-1-Boc-amino-pyrrolidin-3-yl]-6-(4-fluorophenyl)-pyrido(3,2-d)pyrimidine]
pIC50 [1]: 5.36

Nc1nc(N2CCN(C(=O)COc3ccc(Cl)cc3)CC2)c2nc(-c3ccc(F)cc3F)ccc2n1 [Example 423, 2-amino-4-[4-(4-chlorophenoxyacetyl)piperazin-1-yl]-6-(2,4-difluorophenzyl)pyrido-[3,2-d]pyrimidine]
pIC50 [1]: 7.00

COc1cc(-c2ccc3nc(N)nc(N)c3n2)ccc1O [Example 93, 2,4-diamino-6-(4-hydroxy-3-methoxyphenyl)-pyrido[3,2-d]pyrimidine]
pIC50 [2]: 5.29

Cc1noc(C)c1-c1ccc2nc(N)nc(N3CCN(C(=O)COc4ccc(Cl)cc4)CC3)c2n1 [Example 411, 2-amino-4-[4-(4-chlorophenoxyacetyl)piperazin-1-yl]-6-(3,5-dimethylisoxazol-4-yl)pyrido-[3,2-d]pyrimidine]
pIC50 [1]: 7.47

COc1ccc(-c2ccc3nc(N)nc(N4CCN(C(=O)COc5ccc(Cl)cc5)CC4)c3n2)cc1Cl [Example 517]
pIC50 [1]: 7.92

COc1cc(-c2ccc3nc(N)nc(N4CCN(C(=O)COc5ccc(Cl)cc5)CC4)c3n2)ccc1N [Example 514, 2-amino-4-[N-(4-chlorophenoxyacetyl)-piperazin-1-yl]-6-(3-methoxy-4-amino-phenyl)-pyrido(3,2-d)pyrimidine]
pIC50 [1]: 7.15

COc1ccc(-c2ccc3nc(N)nc(N4CC[C@H](NC(=O)Nc5cccc(C)c5)C4)c3n2)cc1OC [Example 221]
pIC50 [2]: 5.89

COc1cc(-c2ccc3nc(N)nc(N4CCN(C(=O)COc5ccc(Cl)cc5)CC4)c3n2)ccc1OCc1ccccc1 [Example 501, 2-amino-4-[N-(4-chlorophenoxyacetyl)-piperazin-1-yl]-6-(3-methoxy-4-benzyloxyphenyl)-pyrido(3,2-d)pyrimidine]
pIC50 [1]: < 5.00

CC(C)(Oc1ccc(Cl)cc1)C(=O)N1CCN(c2nc(N)nc3ccc(-c4ccc(F)cc4)nc23)CC1 [Example 472, 2-amino-4-{4-[2-(4-chlorophenoxy)-2-methylpropionyl]-piperazin-1-yl}-6-(4-fluorophenyl)-pyrido[3,2-d]pyrimidine]
pIC50 [1]: < 5.00
